For 1 molecule, viability, T/C and IC50 results are on record in PubChem BioAssay AID2060893 (Molecular Pharmacology Branch, DTP, NCI, 2025).

Molecules are shown by their SMILES.

This test deals with K86415-001-R-J1-PDC complex spheroids, viability. Nature of the test: Anticancer human tumor K86415-001-R-J1-PDC patient-derived lung adenocarcinoma cell line growth inhibition [RAS]. The settings on record: for viability, T/C: stronger effect = lower value. The gist of the method:
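Agents were tested in combination matrices in half-log decrements from a top concentration at or near clinical Cmax (10 microM if undetermined). Targets were multi-cell spheroids of tumour lines plus HUVEC and MSC stromal cells.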
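Further: spheroids exposed to agents for seven days before readout.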

`O=C(c1ccc(F)c(F)c1Nc1ccc(I)cc1F)N1CC(O)([C@@H]2CCCCN2)C1`: the viability, T/C (as a rule, the ratio of treated to control) was 103% [middle of 4 runs] (compound 0.00316 µM); 90% [middle of 4 runs] (compound 0.01 µM); 59% [middle of 4 runs] (compound 0.0316 µM); 46% [middle of 4 runs] (compound 0.1 µM); 22.4% [middle of 4 runs] (compound 0.316 µM); 8.88% [middle of 4 runs] (compound 1 µM). Also, the IC50 (in general, the concentration needed to halve the response being measured) (curve of compound) was 68 nM [middle of 4 runs].
